Measured values: US11197811B2, “Teeth whitening methods, visually perceptible signals and compositions therefor” (Colgate-Palmolive Company, priority 2012, dated 2021)

How the values were obtained:
[1] = Clarity of gel phase by UV/VIS absorbance; format: physicochemical; settings: original oral gel, 0.5% (w/w) zinc level; for Absorbance: 610 nm, DI water blank
Protocol: Four 500.0 g gel phase batches which contain NaF (control), ZLC, ZnCl2 and ZnO as active ingredient are formulated with the ingredients shown in Table 8. The clarity of samples with different actives is compared, and the precipitation characteristic of ZLC gel phase by dilution is evaluated. The concentration of zinc ions in ZLC solution is 25300 ppm obtained by ICP, which in terms gives approximately 17% weight of ZLC actives in the solution. Zinc ion concentration in the following batches are all prepared at 0.5% (w/w) zinc level.
(§1) Lambda 25 UV/VIS Spectrometer (PerkinElmer) is used to obtain absorbance information for all samples in order to compare the clarity of gel phase between different actives. Absorbance is a logarithmic measure of the amount of light that is absorbed when passing through a substance. Since the particles in the gel absorb light, the more particles existing in solution, the more light absorbed by the gel. Thus, a small number of absorbance of a gel indicates a higher clarity. The absorbance is corrected by using deionized (DI) water as the blank solution under the light source wavelength of 610 nm.

pH of gel phase batches = format: physicochemical; settings: original oral gel batch
[2] = Dilution experiment of gel phase batches (absorbance); format: physicochemical; settings: for Absorbance, 2 fold dilution: gel phase batch diluted 2 fold; for Absorbance, 4 fold dilution: gel phase batch diluted 4 fold; for Absorbance, 8 fold dilution: gel phase batch diluted 8 fold; for Absorbance, 16 fold dilution: gel phase batch diluted 16 fold; for Absorbance, 32 fold dilution: gel phase batch diluted 32 fold
From the text: as §1
(§2) Dilution experiment: All original gel phase batch are diluted into 2 fold, 4 fold, 8 fold, 16 fold and 32 fold. […] This observation confirms the formation of precipitate when ZLC gel is being diluted by water. The pHs of 2 fold, 4 fold, 8 fold, 16 fold, and 32 fold diluted ZLC gel solution are 7.71, 7.91, 8.03, 8.12, and 8.14, respectively.

[3] = pH of diluted ZLC gel solution; format: physicochemical
Protocol: as §2

[4] = Dilution of neat ZLC solution, flocculation/precipitation monitored; format: physicochemical; settings: 37° C.
Protocol: Various dilutions of ZLC are prepared to evaluate its efficiency in producing visible precipitates and/or flocculation, which can be delivered onto a dental surface (dentine and/or enamel) for whitening benefits.
(§3) A neat solution of ZLC is prepared by 1), reacting 0.5 mole of ZnO powder with 1 mole of lysine HCl in 1 liter of water at room temperature for about 2 hours, and 2) collecting the supernatant through centrifugation followed by filtration using a 0.45 micron membrane. The neat solution has a zinc concentration of 2.39% by weight, and a pH of about 7.03.
(§4) Dilution experiment is conducted by mixing the neat solution with deionized water. The neat solution is diluted by 2×, 4×, 6×, 7×, 8×, 10×, 12×, 16×, 20×, 24×, 28×, and 32×, corresponding to initial zinc concentrations of 1.20%, 0.598%, 0.398%, 0.341%, 0.299%, 0.239%, 0.199%, 0.149%, 0.120%, 0.0996%, 0.0854%, 0.0747%, by weight, respectively. The diluted samples are kept at 37° C., and the rates at which flocculation/precipitation occurred are monitored.

[5] = pH of neat and final diluted ZLC solutions; format: physicochemical
Protocol: as §3, §4
pH values of final diluted samples are suitable for oral care applications. […] These pH values are well within the range of 5.5 to 10, which defines the suitable range for oral care formulations.

[6] = Deposition/occlusion assay, confocal imaging; parameters: species or system human; settings: 0.149% zinc, 1 hour at 37° C.
Protocol: (§5) The deposition/occlusion assay is conducted using human dentine slices and the neat solution of Example 3. The dentine slices are prepared by cutting human tooth into thin dentine sections of about 800 microns in thickness, designating a test side, sanding said test side using a sandpaper of about 600 grit, polishing said test side using a Buehler polishing cloth and 5 micron Buehler aluminum oxide, acid-etching said dentine section in 1% (by weight) citric acid solution for about 20 seconds, sonicating said dentine section for 10 minutes, and storing said dentine section in phosphate buffered saline (PBS, pH 7.4, Gibco Cat. No. 10010).
(§6) For treatment, the neat solution is diluted 16-fold with water, yielding a treatment solution with initial zinc concentration of about 0.149% by weight. The dentine section is immersed in the treatment solution for 1 hour at 37° C. The treated dentine section is then removed from the treatment solution, and rinsed 4 times, each time with 1 mL of PBS. The dentine section is then dried using a paper-based tissue and examined under confocal microscope in both XYZ and XYZ modes. Subsequent treatments are conducted in the same manner.
Progressive deposition and occlusion can be observed via confocal imaging. […] The surface deposits can be 10 microns or more in thickness. […] The surface deposits can be 25 microns or more in thickness.

[7] = Repeated 10 minute treatments of dentine section, confocal imaging; parameters: species or system human; settings: 10 minutes at 37° C.; for surface deposition on dentine: 0.0747% zinc
Protocol: as §5
A new dentine sections, as prepared following the procedure in Example 4, is repeatedly treated with ZLC dilutions with initial zinc concentration of 0.0747% by weight. […] The dentine section is examined under the confocal microscope after each treatment.

[8] = Spectrophotometric analysis of whitening (CIELAB color reading); parameters: species or system human; settings: dentine section of Example 4 after third treatment
Protocol: as §6
Spectrophotometric analysis proves the whitening efficacy of the ZLC treatment. After the third treatment, the dentine section of Example 4 is dried and examined under a Spectroshade™ spectrophotometer (Handy Dental Type 71,3000). The treated dentinal area is included and the enamel rim is excluded from the examination and subsequent data processing. The CIELAB color reading is L*=86.6, a*=−1.7, and b*=1.5. A similarly prepared dentine section without treatment yielded a reading of L*=72.5, a*=−1.9, and b*=10.3. It is commonly understood that, by definition, L*=0 means black and L*=100 indicates diffuse white, negative a* value indicates green while positive values indicate magenta, and negative b* values indicate blue and positive values indicate yellow.

With [F-].[Na+] [NaF] the Absorbance [1] was 0.0344, the pH (pH of gel phase batches) was 7.63 and the “Absorbance, 2 fold dilution” value [2] was 0.0106. For the same molecule, the “Absorbance, 4 fold dilution” value [2] was 0.0104, the “Absorbance, 8 fold dilution” value [2] was 0.0107 and the “Absorbance, 16 fold dilution” value [2] was 0.0075. For the same molecule, the “Absorbance, 32 fold dilution” value [2] was 0.0137.

For [O-2].[Zn+2] [ZnO], the “appearance of gel phase” value [1] was “not dissolved and is suspended in gel phase”, the Absorbance [1] was 2.4626 and the pH (pH of gel phase batches) was 8.30. For the same molecule, the “Absorbance, 2 fold dilution” value [2] was 2.4630, the “Absorbance, 4 fold dilution” value [2] was 2.5340 and the “Absorbance, 8 fold dilution” value [2] was 2.1883. The “Absorbance, 16 fold dilution” value [2] was 1.8638 and the “Absorbance, 32 fold dilution” value [2] was 1.0492.

For [Zn(C6H14N2O2)2Cl]^+Cl^− [ZLC], the “appearance of gel phase” value [1] was “forms a homogenous solution”, the Absorbance [1] was 0.1765 and the pH (pH of gel phase batches) was 7.37. The “Absorbance, 2 fold dilution” value [2] was 0.1436, the “Absorbance, 4 fold dilution” value [2] was 0.1887 and the “Absorbance, 8 fold dilution” value [2] was 0.1860. For the same molecule, the “Absorbance, 16 fold dilution” value [2] was 0.1336, the “Absorbance, 32 fold dilution” value [2] was 0.2998 and the “pH of diluted ZLC gel solution” value ([3]; 2 fold diluted) was 7.71. For the same molecule, the “pH of diluted ZLC gel solution” value ([3]; 4 fold diluted) was 7.91, the “pH of diluted ZLC gel solution” value ([3]; 8 fold diluted) was 8.03 and the “pH of diluted ZLC gel solution” value ([3]; 16 fold diluted) was 8.12. The “pH of diluted ZLC gel solution” value ([3]; 32 fold diluted) was 8.14, the “time to some visible flocculation from mixing with water” value ([4]; initial zinc concentrations 0.149% and 0.199%) was no more than 30 min and the flocculation observed ([4]; one and a half hours after mixing, initial zinc between 0.0747% and 0.239%) was “visible flocculation”. For the same molecule, the flocculation observed ([4]; one hour from mixing, initial zinc between 0.0854% and 0.239%) was “visible flocculation”, the “flocculation and/or precipitation observed” value ([4]; total of 19 hours, all samples except initial zinc 1.20%) was “flocculation and/or precipitation can be observed” and the “relative amount of precipitates” value ([4]; total of 19 hours, initial zinc between 0.0747% and 0.239%) was “the most precipitates”. For the same molecule, the flocculation observed ([4]; two hours after mixing, initial zinc 0.299%) was “presence of flocculation”, the “final pH value of diluted sample” value ([5]; initial zinc concentration 0.0747%) was 7.99 and the “final pH value of diluted sample” value ([5]; initial zinc concentration 0.0854%) was 8.13. For the same molecule, the “final pH value of diluted sample” value ([5]; initial zinc concentration 0.0996%) was 8.11, the “final pH value of diluted sample” value ([5]; initial zinc concentration 0.120%) was 7.97 and the “final pH value of diluted sample” value ([5]; initial zinc concentration 0.149%) was 7.99. For the same molecule, the “final pH value of diluted sample” value ([5]; initial zinc concentration 0.199 wt %) was 6.80, the “final pH value of diluted sample” value ([5]; initial zinc concentration 0.239%) was 6.70 and the “pH of neat solution” value ([5]; neat solution, zinc concentration 2.39% by weight) was “about 7.03”. The “deposition and occlusion on dentine surface” value (“deposition and occlusion” for short) ([6]; first treatment) was “noticeable deposition”, the “deposition and occlusion” value ([6]; second treatment) was “complete surface coverage, including blocking of substantially all tubule openings” and the “thickness of surface deposits” value ([6]; second treatment) was no less than 10 microns. The “deposition and occlusion” value ([6]; third treatment) was “complete surface coverage and complete blocking of tubule openings”, the “thickness of surface deposits” value ([6]; third treatment) was no less than 25 microns and the “surface deposition on dentine” value ([7]; after 4 consecutive treatments) was “significant surface deposition”. The “surface deposition on dentine” value ([7]; after 12 consecutive treatments) was “complete surface coverage”, the “precipitation by naked eyes during treatment” value ([7]; initial zinc 0.0747%) was “no precipitation” and the “CIELAB color reading L*” value ([8]; untreated section L*=72.5) was 86.6. For the same molecule, the “CIELAB color reading a*” value ([8]; untreated section a*=−1.9) was −1.7 and the “CIELAB color reading b*” value ([8]; untreated section b*=10.3) was 1.5.

In the case of [Cl-].[Cl-].[Zn+2] [ZnCl2], the “appearance of gel phase” value [1] is reported as “appears cloudy”, the Absorbance [1] is reported as 0.9204 and the pH (pH of gel phase batches) is reported as 5.25. The “Absorbance, 2 fold dilution” value [2] was 0.7315, the “Absorbance, 4 fold dilution” value [2] was 0.3700 and the “Absorbance, 8 fold dilution” value [2] was 0.1701. The “Absorbance, 16 fold dilution” value [2] was 0.0570 and the “Absorbance, 32 fold dilution” value [2] was 0.0280.
